Values joined by “and” are separate entries in the source; they are usually repeats but may differ in a detail not shown here. Equal values may be shown once. Read-outs that look alike come from different tables or passages of the source.
Assay: Pharmacokinetic profile of IUdR (100 mg/kg) with and without Tipiracil in rats following single oral administration
Assay type: in vivo, male Sprague-Dawley rats
Protocol: The purpose of this study was to determine the pharmacokinetics parameters of IUdR in male Sprague-Dawley rats following single oral (PO) administration the IUdR (i.e., Compound A) and Tipiracil (i.e., Compound B).
A control formulation was prepared where Compound A was dissolved in 5% DMSO+95% PBS to yield a final concentration of 10 mg/mL for oral administration. The prepared formulation was white suspension (pH˜7).
A second formulation was prepared where Compound A and Compound B were dissolved in 5% DMSO+95% PBS to yield a final concentration of 10 mg/mL (Compound A) and 0.79 mg/mL (Compound B) for oral administration. The prepared formulation was white suspension (pH˜7).
Animal Acquisition and Assignment to Study. A total of 8 male experimental Sprague-Dawley Rats were transferred from stock colony, and 6 animals were placed on study.
Dose Administration. The test article was administered via a single oral administration.
Sample Collection and Bioanalysis. Blood samples (approximately 200 μL/sample) were collected via jugular vein at Pre-dose and Post-dose (5 min, 15 min, 30 min, 1 h, 2 h, 4 h, 6 h, 8 h and 24 h). Blood samples were placed into tubes containing K2EDTA and centrifuged conditions at 8000 rpm for 6 minutes at 2-8° C. to separate plasma from the samples. Following centrifugation, the resulting plasma were transferred to clean tubes and stored frozen at −80° C. pending bioanalysis.
Pharmacokinetic Analysis. The PK analysis and interpretation of the results were conducted by Medicilon Preclinical Research (Shanghai) LLC. A non-compartmental module of WinNonlin® Professional was used to calculate parameters. Any BLQs (LLOQ=10.0 ng/mL for Compound A) were omitted when calculate the PK parameters.
Clinical Observations. No abnormal observations were noted.

O=c1[nH]c(=O)n([C@H]2C[C@H](O)[C@@H](CO)O2)cc1I [Compound A, 5-iodo-2′-deoxyuridine]
Plasma Concentration of Compound A (PO-100 mg/kg Compound A alone or + 7.9 mg/kg Compound B, 0.083 hr, individual animals, LLOQ 10 ng/mL): 192.41 ng/mL and 168.24 ng/mL
Plasma Concentration of Compound A (PO-100 mg/kg Compound A alone or + 7.9 mg/kg Compound B, 0.25 hr, individual animals, LLOQ 10 ng/mL): 628.30 ng/mL and 538.67 ng/mL
Plasma Concentration of Compound A (PO-100 mg/kg Compound A alone or + 7.9 mg/kg Compound B, 0.5 hr, individual animals, LLOQ 10 ng/mL): 755.39 ng/mL and 684.80 ng/mL
Plasma Concentration of Compound A (PO-100 mg/kg Compound A alone or + 7.9 mg/kg Compound B, 1 hr, individual animals, LLOQ 10 ng/mL): 596.55 ng/mL and 772.49 ng/mL
Plasma Concentration of Compound A (PO-100 mg/kg Compound A alone or + 7.9 mg/kg Compound B, 2 hr, individual animals, LLOQ 10 ng/mL): 645.17 ng/mL and 943.79 ng/mL
Plasma Concentration of Compound A (PO-100 mg/kg Compound A alone or + 7.9 mg/kg Compound B, 4 hr, individual animals, LLOQ 10 ng/mL): 316.82 ng/mL and 441.37 ng/mL
Plasma Concentration of Compound A (PO-100 mg/kg Compound A alone or + 7.9 mg/kg Compound B, 6 hr, individual animals, LLOQ 10 ng/mL): BLQ and 56.61 ng/mL
Plasma Concentration of Compound A (PO-100 mg/kg Compound A alone or + 7.9 mg/kg Compound B, 8 hr, individual animals, LLOQ 10 ng/mL): BLQ
Plasma Concentration of Compound A (PO-100 mg/kg Compound A alone or + 7.9 mg/kg Compound B, 24 hr, individual animals, LLOQ 10 ng/mL): BLQ
AUC(0-inf) (male, Sprague-Dawley, rat, plasma, 100 mg/kg, single oral dose, Example 1, sub-heading prints PO-20 (Compound A) alone or + 7.9 (Compound B) mg/kg, individual animals): 2630 ng·h/mL
half-life (male, Sprague-Dawley, rat, plasma, 100 mg/kg, single oral dose, Example 1, sub-heading prints PO-20 (Compound A) alone or + 7.9 (Compound B) mg/kg, individual animals, read-out: t1/2 of Compound A (converted)): 0.89 h
concentration at 0.083 hr (male, Sprague-Dawley, rat, plasma, oral, 100 mg/kg, PO-100 mg/kg Compound A alone or + 7.9 mg/kg Compound B, 0.083 hr, group mean, read-out: Plasma Concentration of Compound A, Mean): 184 ng/mL
concentration at 0.083 hr (male, Sprague-Dawley, rat, plasma, oral, 100 mg/kg, PO-100 mg/kg Compound A alone or + 7.9 mg/kg Compound B, 0.083 hr, individual animals, LLOQ 10 ng/mL, read-out: Plasma Concentration of Compound A): 191 ng/mL
concentration at 0.25 hr (male, Sprague-Dawley, rat, plasma, oral, 100 mg/kg, PO-100 mg/kg Compound A alone or + 7.9 mg/kg Compound B, 0.25 hr, group mean, read-out: Plasma Concentration of Compound A, Mean): 552 ng/mL
concentration at 0.25 hr (male, Sprague-Dawley, rat, plasma, oral, 100 mg/kg, PO-100 mg/kg Compound A alone or + 7.9 mg/kg Compound B, 0.25 hr, individual animals, LLOQ 10 ng/mL, read-out: Plasma Concentration of Compound A): 489 ng/mL
concentration at 0.5 hr (male, Sprague-Dawley, rat, plasma, oral, 100 mg/kg, PO-100 mg/kg Compound A alone or + 7.9 mg/kg Compound B, 0.5 hr, group mean, read-out: Plasma Concentration of Compound A, Mean): 689 ng/mL
concentration at 0.5 hr (male, Sprague-Dawley, rat, plasma, oral, 100 mg/kg, PO-100 mg/kg Compound A alone or + 7.9 mg/kg Compound B, 0.5 hr, individual animals, LLOQ 10 ng/mL, read-out: Plasma Concentration of Compound A): 627 ng/mL
concentration at 1 hr (male, Sprague-Dawley, rat, plasma, oral, 100 mg/kg, PO-100 mg/kg Compound A alone or + 7.9 mg/kg Compound B, 1 hr, group mean, read-out: Plasma Concentration of Compound A, Mean): 642 ng/mL
concentration at 1 hr (male, Sprague-Dawley, rat, plasma, oral, 100 mg/kg, PO-100 mg/kg Compound A alone or + 7.9 mg/kg Compound B, 1 hr, individual animals, LLOQ 10 ng/mL, read-out: Plasma Concentration of Compound A): 556 ng/mL
concentration at 2 hr (male, Sprague-Dawley, rat, plasma, oral, 100 mg/kg, PO-100 mg/kg Compound A alone or + 7.9 mg/kg Compound B, 2 hr, group mean, read-out: Plasma Concentration of Compound A, Mean): 788 ng/mL
concentration at 2 hr (male, Sprague-Dawley, rat, plasma, oral, 100 mg/kg, PO-100 mg/kg Compound A alone or + 7.9 mg/kg Compound B, 2 hr, individual animals, LLOQ 10 ng/mL, read-out: Plasma Concentration of Compound A): 774 ng/mL
concentration at 4 hr (male, Sprague-Dawley, rat, plasma, oral, 100 mg/kg, PO-100 mg/kg Compound A alone or + 7.9 mg/kg Compound B, 4 hr, group mean, read-out: Plasma Concentration of Compound A, Mean): 345 ng/mL
concentration at 4 hr (male, Sprague-Dawley, rat, plasma, oral, 100 mg/kg, PO-100 mg/kg Compound A alone or + 7.9 mg/kg Compound B, 4 hr, individual animals, LLOQ 10 ng/mL, read-out: Plasma Concentration of Compound A): 276 ng/mL
concentration at 6 hr (male, Sprague-Dawley, rat, plasma, oral, 100 mg/kg, PO-100 mg/kg Compound A alone or + 7.9 mg/kg Compound B, 6 hr, group mean (BLQ omitted), read-out: Plasma Concentration of Compound A, Mean): 55.3 ng/mL
concentration at 6 hr (male, Sprague-Dawley, rat, plasma, oral, 100 mg/kg, PO-100 mg/kg Compound A alone or + 7.9 mg/kg Compound B, 6 hr, individual animals, LLOQ 10 ng/mL, read-out: Plasma Concentration of Compound A): 54 ng/mL
concentration at 8 hr (male, Sprague-Dawley, rat, plasma, oral, 100 mg/kg, PO-100 mg/kg Compound A alone or + 7.9 mg/kg Compound B, 8 hr, individual animals, LLOQ 10 ng/mL): 14.1 ng/mL
AUC(0-t) (male, Sprague-Dawley, rat, plasma, po, 100 mg/kg, oral administration, Example 1 (100 mg/kg IUdR, ± 7.9 mg/kg Tipiracil), comparison table, mean, read-out: AUC(0-t) of Compound A): 2720 ng·h/mL
Cmax (male, Sprague-Dawley, rat, plasma, po, 100 mg/kg, oral administration, Example 1 (100 mg/kg IUdR, ± 7.9 mg/kg Tipiracil), comparison table, mean, read-out: Cmax of Compound A): 824 ng/mL
Tmax (male, Sprague-Dawley, rat, plasma, po, 100 mg/kg, single oral dose, Example 1, sub-heading prints PO-20 (Compound A) alone or + 7.9 (Compound B) mg/kg, group mean): 1.5 h
Cmax (male, Sprague-Dawley, rat, plasma, po, 100 mg/kg, single oral dose, Example 1, sub-heading prints PO-20 (Compound A) alone or + 7.9 (Compound B) mg/kg, group mean, read-out: Cmax of Compound A, Mean): 824 ng/mL
AUC(0-t) (male, Sprague-Dawley, rat, plasma, po, 100 mg/kg, single oral dose, Example 1, sub-heading prints PO-20 (Compound A) alone or + 7.9 (Compound B) mg/kg, individual animals): 3320 ng·h/mL
Cmax (male, Sprague-Dawley, rat, plasma, po, 100 mg/kg, single oral dose, Example 1, sub-heading prints PO-20 (Compound A) alone or + 7.9 (Compound B) mg/kg, individual animals, read-out: Cmax of Compound A): 944 ng/mL
